Results reported in patent US10183015B2, “Heterocyclic compounds and methods of use” (Medivation Technologies LLC, priority 2015, dated 2019).
Where “and” joins values, the source holds several entries; their conditions need not be identical. Identical values can stand only once.

Key:
LDLR = experiment: Short-term Paigen-diet NASH mouse model: hepatic LDLR gene expression (RT-qPCR); format: in vivo; settings: liver; for DDct: LDLR Dct relative to vehicle mean; for Dct: LDLR minus 18S; for 2DDct: LDLR relative expression to vehicle group, normalized to 18S; for LDLR: raw RT-qPCR value
Description: To investigate whether Compound #37 prevents the development of pathology associated with NASH and steatosis in an acute exploratory disease model, a study was conducted using a diet-induced acute liver steatosis model in mice. As described below, in this study, C57BL/6J mice were initiated on the Paigen diet and simultaneously treated with Compound #37 (5, 20, and 40 mg/kg/day) or vehicle control (20% HPβCD 10 mL/kg/day) by oral gavage for 21 days.
(§1) After acclimation, 8-week old male C57Bl/6J mice (Charles River) weighing about 25 g were randomized in 4 groups according their body weight and treated once daily around noon by oral gavage with vehicle, or Compound #37 at various for 21 days as follows: Group 1: vehicle-20% (2-hydroxypropyl)-β-cyclodextrin (HP-β-CD) (n=10); Group 2: Compound #37, 5 mg/kg (n=10) Group 3: Compound #37, 20 mg/kg (n=10) Group 4: Compound #37, 40 mg/kg (n=10). During the treatment period, body weight and food intake (measured over 24h) were measured 3 times per week and once a week, respectively. During the acclimation, all mice were fed a standard diet (Special Diets Services RM1 (E), product no. 801492) and tap water ad libitum. After the acclimation period, mice were fed until the end of the experiment with a 60% high fat Paigen diet (60 kcal % fat, 1.25% cholesterol, and 0.5% cholate; D11061901, Research Diet) and tap water ad libitum.
Gene expression analysis. Hepatic expression levels of genes involved in lipid metabolism (FAS, SREBP1, ACC1, SCD1), cholesterol metabolism (HMG-CoAR, LDLR), SREBP proteolysis (SCAP, INSIG1), ER stress (PERK), oxidative stress (NRF2), inflammation (MCP-1), and fibrosis (collagen 1α1) were quantified by RTqPCR. Expression level was normalized to 18S gene expression and relative expression to vehicle group was calculated with the […] method.

[1] = tested on: 60% high fat Paigen diet induced NASH mouse model; experiment: Short-term Paigen-diet NASH mouse model: liver weight and liver lipid content; format: in vivo
Description: To investigate whether Compound #37 prevents the development of pathology associated with NASH and steatosis in an acute exploratory disease model, a study was conducted using a diet-induced acute liver steatosis model in mice. […]
as §1, with “or Compound #37 at various for 21 days as follows: Group 1: vehicle-20%” left out, “After the acclimation period, mice were fed until the end of the experiment with a 60% high fat Paigen diet (60 kcal % fat, 1.25% cholesterol, and 0.5% cholate; D11061901, Research Diet) and tap water ad libitum.” left out
After 21 days of treatment, mice were 4-hour fasted (9 am to 1 pm). One hour after the last dosing (noon), blood was collected by retro-orbital bleeding (maximal volume on EDTA) under isoflurane anesthesia to measure plasma triglycerides, total cholesterol, non-esterified fatty acid, ALT and AST. Mice were then sacrificed by cervical dislocation, and livers were harvested and weighed. Liver samples from the same lobe were dissected, frozen, and analyzed as described below.
At the end of the treatment period, livers were weighed, and their lipid content was analyzed. The liver weights were unchanged by the treatment.

HepG2 cells = experiment: HepG2 cell viability under serum-free conditions (MTS); format: cell-based; settings: Homo sapiens
Description: Cancer cells such as HepG2 cells depend on SREBP activation and de novo lipogenesis to survive, particularly in low serum or serum-free conditions. Using this model, compounds were screened over 24 hours for the ability to block cleavage of SREBP to its active form and over 72 hours for an effect on cell viability under serum-free conditions.
For viability measurements, HepG2 cells were seeded at 5,000 cells per well in 96-well plates in DMEM supplemented with 10% FBS. After 1 day in culture, cells were treated with compounds (20 μM & 5 μM) for 3 days in DMEM without FBS. Viability was measured by MTS […]. […]

[2] = Compound #37 5 mg/kg, group mean, n=10
[3] = Compound #37 5 mg/kg, individual animals, 5 mg/kg
[4] = Compound #37 20 mg/kg, group mean, n=6
[5] = Compound #37 20 mg/kg, individual animals, 20 mg/kg
[6] = 5 mg/kg p.o. daily, 21 days of diet and treatment, group mean
[7] = 5 mg/kg p.o. daily, 21 days of diet and treatment, individual animals
[8] = 20 mg/kg p.o. daily, 21 days of diet and treatment, group mean
[9] = 20 mg/kg p.o. daily, 21 days of diet and treatment, individual animals
[10] = 40 mg/kg p.o. (stopped after 4 administrations), 9 days of diet, group mean
[11] = 40 mg/kg p.o. (stopped after 4 administrations), 9 days of diet, individual animals

In the case of `CC(C)Cc1cc(-c2nc(-c3ccc(NS(=O)(=O)C(F)(F)F)cc3Cl)cs2)ccn1` [Compound 37, N-(3-chloro-4-(2-(2-isobutylpyridin-4-yl)thiazol-4-yl)phenyl)-1,1,1-trifluoromethanesulfonamide], the DDct (LDLR; [2]) is reported as 0.18, the DDct (LDLR; [3]) is reported as −0.92 and 0.13 and −0.60 and −0.98 and 1.46 and 1.39 and 0.04 and 0.33 and 0.52 and 0.37 and the DDct (LDLR; [4]) is reported as −0.09. The DDct (LDLR; [5]) was 0.38 and 0.91 and 0.32 and −1.22 and 0.42 and −1.37, the Dct (LDLR; [2]) was 12.8 and the Dct (LDLR; [3]) was 11.74 and 12.79 and 12.06 and 11.68 and 14.12 and 14.05 and 12.7 and 12.99 and 13.18 and 13.03. For the same compound, the Dct (LDLR; [4]) was 12.6, the Dct (LDLR; [5]) was 13.04 and 13.57 and 12.98 and 11.44 and 13.08 and 11.29 and the 2DDct (LDLR; [2]) was 1.03. The 2DDct (LDLR; [3]) was 1.89 and 0.91 and 1.51 and 1.97 and 0.36 and 0.38 and 0.97 and 0.79 and 0.70 and 0.77, the 2DDct (LDLR; [4]) was 1.29 and the 2DDct (LDLR; [5]) was 0.77 and 0.53 and 0.80 and 2.33 and 0.75 and 2.58. The LDLR (LDLR; [2]) was 25.1, the LDLR (LDLR; [3]) was 25.2 and 25.9 and 23.67 and 25.03 and 26.15 and 27.4 and 24.3 and 24.78 and 24.32 and 24.15 and the LDLR (LDLR; [4]) was 24.8. For the same compound, the LDLR (LDLR; [5]) was 25.95 and 25.86 and 25.18 and 24.47 and 24.57 and 22.55, the “liver cholesterol (μg/mg tissue)” value [1, 6] was 34.4 μg/mg tissue and the “liver fatty acids (nmol/mg tissue)” value [1, 6] was 57.6 nmol/mg tissue. For the same compound, the “liver triglycerides (μg/mg tissue)” value [1, 6] was 6.2 μg/mg tissue, the “liver cholesterol (μg/mg tissue)” value [1, 7] was 42.24 μg/mg tissue and 37.91 μg/mg tissue and 31.39 μg/mg tissue and 23.12 μg/mg tissue and 31.47 μg/mg tissue and 25.31 μg/mg tissue and 29.76 μg/mg tissue and 37.34 μg/mg tissue and 49.15 μg/mg tissue and 36.57 μg/mg tissue and the “liver fatty acids (nmol/mg tissue)” value [1, 7] was 65.4 nmol/mg tissue and 66.6 nmol/mg tissue and 53.5 nmol/mg tissue and 47.5 nmol/mg tissue and 55.2 nmol/mg tissue (2×) and 35.5 nmol/mg tissue and 55.0 nmol/mg tissue and 77.4 nmol/mg tissue and 65.2 nmol/mg tissue. The “liver triglycerides (μg/mg tissue)” value [1, 7] was 6.91 μg/mg tissue and 7.18 μg/mg tissue and 4.64 μg/mg tissue and 9.62 μg/mg tissue and 6.13 μg/mg tissue (2×) and 5.69 μg/mg tissue and 5.49 μg/mg tissue and 3.62 μg/mg tissue and 6.16 μg/mg tissue, the “liver cholesterol (μg/mg tissue)” value [1, 8] was 39.1 μg/mg tissue and the “liver fatty acids (nmol/mg tissue)” value [1, 8] was 63.3 nmol/mg tissue. The “liver triglycerides (μg/mg tissue)” value [1, 8] was 5.4 μg/mg tissue, the “liver cholesterol (μg/mg tissue)” value [1, 9] was 38.32 μg/mg tissue and 42.07 μg/mg tissue and 39.38 μg/mg tissue and 32.61 μg/mg tissue and 40.02 μg/mg tissue and 42.44 μg/mg tissue and the “liver fatty acids (nmol/mg tissue)” value [1, 9] was 63.4 nmol/mg tissue and 66.5 nmol/mg tissue and 65.0 nmol/mg tissue and 50.0 nmol/mg tissue and 62.7 nmol/mg tissue and 72.5 nmol/mg tissue. The “liver triglycerides (μg/mg tissue)” value [1, 9] was 6.75 μg/mg tissue and 2.65 μg/mg tissue and 2.83 μg/mg tissue and 3.72 μg/mg tissue and 9.84 μg/mg tissue and 6.82 μg/mg tissue, the “liver cholesterol (μg/mg tissue)” value [1, 10] was 20.3 μg/mg tissue and the “liver fatty acids (nmol/mg tissue)” value [1, 10] was 43.0 nmol/mg tissue. For the same compound, the “liver triglycerides (μg/mg tissue)” value [1, 10] was 11.7 μg/mg tissue, the “liver cholesterol (μg/mg tissue)” value [1, 11] was 22.40 μg/mg tissue and 20.18 μg/mg tissue and 20.88 μg/mg tissue and 17.60 μg/mg tissue and the “liver fatty acids (nmol/mg tissue)” value [1, 11] was 43.6 nmol/mg tissue and 43.1 nmol/mg tissue and 43.5 nmol/mg tissue and 41.8 nmol/mg tissue. For the same compound, the “liver triglycerides (μg/mg tissue)” value [1, 11] was 9.11 μg/mg tissue and 11.15 μg/mg tissue and 14.68 μg/mg tissue and 11.77 μg/mg tissue, the cytotoxicity at 5 µM (HepG2 cells; HepG2, 72 h, 5 μM, 3 days, DMEM without FBS, read-out: Average Viability (% Inhibition, n = 3)) was 94% and the cytotoxicity at 20 µM (HepG2 cells; HepG2, 72 h, 20 μM, 3 days, DMEM without FBS, read-out: Average Viability (% Inhibition, n = 3)) was 95%. The IC50 (HepG2 cells; HepG2, serum-free, read-out: IC50 for decreased viability of HepG2 cells) was 2100 nM.
